# Assay results from US7273845B2, “Polymeric prodrugs of vancomycin” (priority 2002, dated 2007).
# Experiments:
# S. aureus (6538P) = test: Minimum Inhibitory Concentration (MIC), S. aureus (6538P); type: cell-based; settings: vancomycin equivalents
# [1] = Circulatory pharmacokinetics after single intravenous dose in rats; settings: for Vss: 50 mg/kg
# Procedure: PEG-vancomycin conjugates containing a 50 mg/kg vancomycin equivalent dose and 50 mg/kg native vancomycin (1) were injected as a single intravenous dose into the tail vein of conscious rats at a rate of 0.5 ml/min [˜2.5 min]. […] A 250 μL bled was done on rats sedated with 30% O2/70% CO2 via the retro-orbital plexus into EDTA containing vials. Blood was immediately processed for plasma and frozen on dry ice. Plasma samples were stored at −80° C. until analyzed. The plasma samples were analyzed by a fluorescence polarization immunoassay using an Abbott Laboratories TDx analyzer within two hours of thawing. A single compartment model using WinNonlin™ software was used to determine the-plasma pharmacokinetic parameters.
# S. aureus (Smith) = test: Sustained anti-infective protection, compound given before LD90-100 S. aureus (Smith) challenge, survival; type: in vivo, ICR Swiss mice
# Procedure: A second study was also performed to examine the sustained anti-infective protection of PEG-vancomycin conjugate 22. ICR Swiss mice were administered with either 100 mg/kg vancomycin equivalents of 22, 100 mg/kg vancomycin, or saline in two equally split doses 1½ hours apart. Ten mice per treatment group were used.
# [2] = system: Staphylococcus aureus (Smith); test: LD90-100 examination, compound given after S. aureus (Smith) challenge, survival; type: in vivo, ICR Swiss mice; settings: 100 mg/kg vancomycin equivalents in two equal split doses 1 and 2.5 h following LD90-100 S. aureus (Smith) inoculation; survival after 1 week
# Procedure: Studies examining the in vivo anti-infective potential of PEG-vancomycin conjugates in ICR Swiss mice were performed. […] As controls, S. aureus (Smith) challenged mice were administered either saline or 100 mg/kg vancomycingiven in equal split doses. Ten mice were used per compound tested.
# E. faecalis (29212) = test: Minimum Inhibitory Concentration (MIC), E. faecalis (29212); type: cell-based; settings: vancomycin equivalents
# S. aureus (29214) = test: Minimum Inhibitory Concentration (MIC), S. aureus (29214); type: cell-based; settings: vancomycin equivalents
# E.coli (25922) = test: Minimum Inhibitory Concentration (MIC), E.coli (25922); type: cell-based; settings: vancomycin equivalents
# [3] = 50 mg/kg vancomycin equivalents i.v.
# [4] = intravenous bolus 50 mg/kg vancomycin equivalents, plasma
substance,measurement,setting,value
vancomycin [Compound 1],MIC S. aureus (6538P),S. aureus (6538P),1.6 µg/mL
same,Cmax,[1]; [3],162 µg/mL
same,area under the curve (AUC),[1]; [3],78800 ng·h/mL
same,circulatory half-life (t1/2),[1]; [3],20.4 min
same,clearance (CL),[1]; [3],10.7 mL/min/kg
same,AUC,[1]; [4],78800 ± 10800 ng·h/mL
same,CL,[1]; [4],10.7 ± 1.4 mL/min/kg
same,Cmax,[1]; [4],162.0 ± 9.0 µg/mL
same,Plasma Half-life,[1]; [4],20.4 ± 2.4 min
same,Vss,[1]; [4],0.3093 ± 0.0172 L/kg
same,Vss,"[1]; intravenous bolus 50 mg/kg vancomycin equivalents, plasma, listed as Vancomycin",0.309 L/kg
same,anti-microbial protection against later S. aureus challenge (in words),"S. aureus (Smith); 100 mg/kg vancomycin equivalents given before challenge, ICR Swiss mice",no protection
same,Pre-Challenge % Survival (mice),"S. aureus (Smith); 100 mg/kg vancomycin equivalents in two split doses 1½ h apart, given prior to LD90-100 S. aureus (Smith) challenge, survival after 1 week",0%
same,Post Challenge % Survival (mice),[2],100%
same,MIC E. faecalis (29212),E. faecalis (29212),6.2 µg/mL
same,MIC S. aureus (29214),S. aureus (29214),3.1 µg/mL
same,MIC E.coli (25922),E.coli (25922),>100 µg/mL
